{
  "source": "patent US20110319384A1",
  "about": "“Pharmaceutical Compositions” (priority 2005, published 2011)",
  "key": {"[1]": {"tested_on": "patients with treatment resistant or non-remitted GAD", "source_text": "The study population was limited to GAD patients who had not remitted following at least 8 weeks of therapeutic doses of conventional therapy. Conventional therapy includes treatment with one of the following: citalopram, escitalopram, paroxetine, paroxetine CR, venlafaxine XR, sertraline, mirtazapine, fluoxetine, fluvoxamine, or no medication at all. Each patient provided informed consent and was observed on an outpatient basis.\nThe study population was comprised of patients between the ages of 22 and 61. Forty-eight percent of the study population was male and fifty-two percent was female. […] Patients with other psychiatric disorders, subjective suicidal tendencies, a Montgomery-Asberg Depression Rating Scale (MADRS) score >19, or serious medical conditions were excluded from the study. In addition, pregnant or lactating women and those who took medications prohibited by the study design (e.g., psychoactive substances and oral antipsychotics) within 2 weeks of the original screening were also excluded.\nThe mean change from baseline to Week 12 in HAM-A total scores was the primary endpoint. […] These additional efficacy assessments were all measured from baseline to Week 12."}, "[2]": {"tested_on": "non-depressed patients with GAD", "details": "for change from baseline in HAM-A total score, observed case analysis: significant"}, "[3]": {"tested_on": "patients with residual anxiety and depression despite SSRI treatment"}, "[4]": {"tested_on": "outpatient adults with SRI-resistant OCD"}, "[5]": {"tested_on": "patients with Social Anxiety Disorder (SAD)"}, "patients with GAD": {"tested_on": "patients with GAD", "details": "hypothesis to be tested"}, "[6]": {"details": "adjunct to conventional therapy"}, "[7]": {"details": "adjunct to conventional therapy, mean dose 386 mg/day"}},
  "note": "Like-named read-outs stand apart in the source and are kept apart here.",
  "data": [
    {"compound": "OCCOCCN1CCN(C2=Nc3ccccc3Sc3ccccc32)CC1", "note": "[quetiapine, 11-[4-[2-(2-hydroxyethoxy)ethyl]-1-piperazinyl]-dibenzo[b,f][1,4]thiazepine]", "values": [
      {"measurement": "Dysfunctional Beliefs and Attitudes about Sleep Scale (DBAS) mean at Week 12", "setting": "[1]; [6]", "value": "about 73"},
      {"measurement": "Dysfunctional Beliefs and Attitudes about Sleep Scale (DBAS) mean at baseline", "setting": "[1]; [6]", "value": "about 88"},
      {"measurement": "PSQI (sleep quality) baseline mean", "setting": "[1]; [6]", "value": "about 17"},
      {"measurement": "PSQI (sleep quality) mean in Week 12", "setting": "[1]; [6]", "value": "about 7"},
      {"measurement": "Penn State Worry Questionnaire (PSWQ) mean at Week 12", "setting": "[1]; [6]", "value": "about 44"},
      {"measurement": "Penn State Worry Questionnaire (PSWQ) mean at baseline", "setting": "[1]; [6]", "value": "about 53"},
      {"measurement": "mean HAM-A total score after 12 weeks of treatment", "setting": "[1]; [7]", "value": "about 9"},
      {"measurement": "mean HAM-A total score at baseline", "setting": "[1]; [7]", "value": "about 30"},
      {"measurement": "improvement in mean Sheehan Disability Inventory (SDI) scores (work, family, social interactions)", "setting": "[1]; baseline to Week 12", "value": "about 2"},
      {"measurement": "mean total weight gain and BMI", "setting": "[1]; baseline to Week 12", "value": "slight increases"},
      {"measurement": "patients who entered the study reporting sedation as an adverse event", "setting": "[1]; in vivo", "value": "Forty"},
      {"measurement": "serious adverse events", "setting": "[1]; in vivo", "value": "no serious adverse events were reported"},
      {"measurement": "vital signs or laboratory assessments", "setting": "[1]; in vivo", "value": "no clinically significant changes"},
      {"measurement": "patients who withdrew due to adverse events", "setting": "[1]; of 50 patients eligible for inclusion", "value": "seven"},
      {"measurement": "patients who withdrew because of sedation", "setting": "[1]; of the patients withdrawn for adverse events", "value": "five"},
      {"measurement": "reduction in HAM-A psychic anxiety subscale, observed cases", "setting": "[2]; Week 2, placebo −3.0", "value": "−6.6"},
      {"measurement": "change from baseline in HAM-A total score, observed case analysis", "setting": "[2]; Week 2, placebo −5.9", "value": "−11.1"},
      {"measurement": "reduction in HAM-A psychic anxiety subscale, observed cases", "setting": "[2]; Week 4, placebo −4.0", "value": "−7.8"},
      {"measurement": "change from baseline in HAM-A total score, observed case analysis", "setting": "[2]; Week 4, placebo −8.6", "value": "−13.7"},
      {"measurement": "mean decrease from baseline in HAM-A total score", "setting": "[2]; baseline to week 6, ITT, LOCF, placebo about 9, difference not significant, mean dose 125 mg/day", "value": "about 12"},
      {"measurement": "AIMS, SAS, or BARS scores versus placebo", "setting": "[2]; in vivo", "value": "no statistically significant differences"},
      {"measurement": "tolerability", "setting": "[2]; in vivo", "value": "generally well tolerated"},
      {"measurement": "patients who discontinued treatment because of AEs", "setting": "[2]; of 19 in the group", "value": "Five"},
      {"measurement": "remission rate at endpoint (HAM-A total score ≦7)", "setting": "[2]; placebo 21.1%, not statistically significant", "value": 42.1, "unit": "%"},
      {"measurement": "response rate at endpoint (≧50% reduction in HAM-A total score)", "setting": "[2]; placebo 36.8%, not statistically significant", "value": 57.9, "unit": "%"},
      {"measurement": "reduction from baseline on the CGI-S", "setting": "[2]; placebo −1.05", "value": "−1.37"},
      {"measurement": "reduction from baseline on the Hospital Anxiety and Depression (HAD) anxiety subscale", "setting": "[2]; placebo −3.16", "value": "−3.79"},
      {"measurement": "reduction from baseline on the HAM-A somatic subscale", "setting": "[2]; placebo −4.4", "value": "−5.2"},
      {"measurement": "mean HAM-A score after 9 weeks of treatment", "setting": "[3]; added to stable SSRI", "value": "about 6"},
      {"measurement": "mean HAM-A score at baseline", "setting": "[3]; added to stable SSRI", "value": "about 25"},
      {"measurement": "mean HAM-D score after 9 weeks of treatment", "setting": "[3]; added to stable SSRI", "value": "about 6"},
      {"measurement": "mean HAM-D score at baseline", "setting": "[3]; added to stable SSRI", "value": "about 20"},
      {"measurement": "mean State Anxiety Inventory (SAI) score after 9 weeks of treatment", "setting": "[3]; added to stable SSRI", "value": "about 30"},
      {"measurement": "mean State Anxiety Inventory (SAI) score at baseline", "setting": "[3]; added to stable SSRI", "value": "about 51"},
      {"measurement": "BARS or SAS scores", "setting": "[3]; in vivo", "value": "no clinically relevant changes"},
      {"measurement": "discontinuation as a result of an adverse event", "setting": "[3]; in vivo", "value": "no patient discontinued therapy"},
      {"measurement": "most common side effects", "setting": "[3]; in vivo", "value": "Drowsiness, mild dry mouth, and constipation"},
      {"measurement": "reduction in scores, HAM-A individual subjects analysis", "setting": "[3]; in vivo", "value": "≥ 50", "unit": "%"},
      {"measurement": "serious adverse events", "setting": "[3]; in vivo", "value": "No serious adverse events occurred"},
      {"measurement": "weight gain", "setting": "[3]; in vivo", "value": "minimal for all patients but one"},
      {"measurement": "mean MADRS score at baseline", "setting": "[4]; added to SRI", "value": "about 19"},
      {"measurement": "mean MADRS score at trial end", "setting": "[4]; added to SRI", "value": "about 15"},
      {"measurement": "mean Y-BOCS score at baseline, the 5 patients that responded", "setting": "[4]; added to SRI", "value": "about 30"},
      {"measurement": "mean Y-BOCS score after treatment, the 5 patients that responded", "setting": "[4]; added to SRI, 8 weeks", "value": "about 17"},
      {"measurement": "patients who responded to treatment (≧25% decrease in Y-BOCS score at endpoint)", "setting": "[4]; added to SRI, final mean dosage about 169 mg/day", "value": "Five of the 16"},
      {"measurement": "most common adverse events", "setting": "[4]; in vivo", "value": "Sedation and fatigue"},
      {"measurement": "patients who withdrew because of an adverse event", "setting": "[4]; in vivo", "value": 1, "unit": "patient"},
      {"measurement": "severity of adverse events", "setting": "[4]; in vivo", "value": "generally mild"},
      {"measurement": "BSPS scores versus placebo at baseline or endpoint", "setting": "[5]; in vivo", "value": "no significant differences"},
      {"measurement": "SPIN or SDI scores versus placebo at baseline or endpoint", "setting": "[5]; in vivo", "value": "no significant difference"},
      {"measurement": "mean CGI-I scores at endpoint versus placebo", "setting": "[5]; in vivo", "value": "no significant difference"},
      {"measurement": "most frequent side effects", "setting": "[5]; in vivo", "value": "drowsiness, dizziness, and nausea"},
      {"measurement": "serious adverse events", "setting": "[5]; in vivo", "value": "No serious adverse events were reported"},
      {"measurement": "patients who scored a 1 or 2 on the CGI-I scale", "setting": "[5]; placebo 0%", "value": 40, "unit": "%"},
      {"measurement": "patients experiencing a ≧50% drop in BSPS score at endpoint compared with baseline", "setting": "[5]; placebo 0%, mean final dose 147 mg twice a day", "value": 20, "unit": "%"},
      {"measurement": "Somnolence: severity of AEs, time of first instance, withdrawals due to AE of somnolence", "setting": "patients with GAD; compared to placebo", "value": "generally mild, occurs early in"},
      {"measurement": "Change from randomization in MADRS total score at Day 57", "setting": "patients with GAD; depressive symptoms in GAD, vs placebo", "value": "Quetiapine is more effective"},
      {"measurement": "Adverse events related to discontinuation; change in Discontinuation-Emergent Signs and Symptoms total score at Day 64 and Day 71", "setting": "patients with GAD; discontinuation symptoms", "value": "Quetiapine does not have"},
      {"measurement": "Change from normal to Clinically Important in Physical Examinations; Laboratory values; Vital signs; ECGs", "setting": "patients with GAD; once daily up to 300 mg/day", "value": "300 mg/day is safe and well"},
      {"measurement": "Change from randomization in Q-les-Q Item 15 (Satisfaction with medication) at Day 57", "setting": "patients with GAD; patient satisfaction, vs placebo", "value": "Quetiapine is more effective"}
    ]}
  ]
}
